Patent publication US8614223B2, “Pyrimidine hydroxy amide compounds as protein deacetylase inhibitors and methods of use thereof” (Acetylon Pharmaceuticals, Inc., priority 2010, dated 2013)

Key:
[1] = target: HDAC2 (Homo sapiens (Human), UniProt Q92769); test: HDAC enzyme assay, HDAC2; details: for HDAC2 fold over HDAC6 IC50 (selectivity for HDAC6): ratio HDAC2/HDAC6; for IC50: read-out: HDAC2 IC50
[2] = target: HDAC6 (Homo sapiens (Human), UniProt Q9UBN7); details: read-out: HDAC6 IC50
[3] = target: HDAC3 (Homo sapiens (Human), UniProt O15379); test: HDAC enzyme assay, HDAC3; details: for HDAC3 fold over HDAC6 IC50 (selectivity for HDAC6): ratio HDAC3/HDAC6; for IC50: read-out: HDAC3 IC50
[4] = target: HDAC1 (Homo sapiens (Human), UniProt Q13547); test: HDAC enzyme assay, HDAC1; details: for HDAC1 fold over HDAC6 IC50 (selectivity for HDAC6): ratio HDAC1/HDAC6; for IC50: read-out: HDAC1 IC50
Chain of HDAC1 (Q13547 whole entry): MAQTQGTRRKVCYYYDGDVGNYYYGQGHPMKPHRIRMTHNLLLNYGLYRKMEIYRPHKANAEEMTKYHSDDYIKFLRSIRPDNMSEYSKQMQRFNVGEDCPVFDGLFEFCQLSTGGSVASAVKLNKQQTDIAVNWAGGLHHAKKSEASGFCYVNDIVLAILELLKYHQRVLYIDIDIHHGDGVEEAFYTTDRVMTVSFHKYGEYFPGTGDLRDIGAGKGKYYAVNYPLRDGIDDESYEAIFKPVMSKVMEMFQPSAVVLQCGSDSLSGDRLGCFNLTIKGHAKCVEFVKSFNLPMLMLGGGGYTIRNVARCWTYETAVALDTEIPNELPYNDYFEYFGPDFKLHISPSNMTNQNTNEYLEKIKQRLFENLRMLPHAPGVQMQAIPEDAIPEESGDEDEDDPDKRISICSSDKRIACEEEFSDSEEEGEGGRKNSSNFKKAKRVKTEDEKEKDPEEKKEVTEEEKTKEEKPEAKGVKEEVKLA

Chain of HDAC6 (Q9UBN7 whole entry): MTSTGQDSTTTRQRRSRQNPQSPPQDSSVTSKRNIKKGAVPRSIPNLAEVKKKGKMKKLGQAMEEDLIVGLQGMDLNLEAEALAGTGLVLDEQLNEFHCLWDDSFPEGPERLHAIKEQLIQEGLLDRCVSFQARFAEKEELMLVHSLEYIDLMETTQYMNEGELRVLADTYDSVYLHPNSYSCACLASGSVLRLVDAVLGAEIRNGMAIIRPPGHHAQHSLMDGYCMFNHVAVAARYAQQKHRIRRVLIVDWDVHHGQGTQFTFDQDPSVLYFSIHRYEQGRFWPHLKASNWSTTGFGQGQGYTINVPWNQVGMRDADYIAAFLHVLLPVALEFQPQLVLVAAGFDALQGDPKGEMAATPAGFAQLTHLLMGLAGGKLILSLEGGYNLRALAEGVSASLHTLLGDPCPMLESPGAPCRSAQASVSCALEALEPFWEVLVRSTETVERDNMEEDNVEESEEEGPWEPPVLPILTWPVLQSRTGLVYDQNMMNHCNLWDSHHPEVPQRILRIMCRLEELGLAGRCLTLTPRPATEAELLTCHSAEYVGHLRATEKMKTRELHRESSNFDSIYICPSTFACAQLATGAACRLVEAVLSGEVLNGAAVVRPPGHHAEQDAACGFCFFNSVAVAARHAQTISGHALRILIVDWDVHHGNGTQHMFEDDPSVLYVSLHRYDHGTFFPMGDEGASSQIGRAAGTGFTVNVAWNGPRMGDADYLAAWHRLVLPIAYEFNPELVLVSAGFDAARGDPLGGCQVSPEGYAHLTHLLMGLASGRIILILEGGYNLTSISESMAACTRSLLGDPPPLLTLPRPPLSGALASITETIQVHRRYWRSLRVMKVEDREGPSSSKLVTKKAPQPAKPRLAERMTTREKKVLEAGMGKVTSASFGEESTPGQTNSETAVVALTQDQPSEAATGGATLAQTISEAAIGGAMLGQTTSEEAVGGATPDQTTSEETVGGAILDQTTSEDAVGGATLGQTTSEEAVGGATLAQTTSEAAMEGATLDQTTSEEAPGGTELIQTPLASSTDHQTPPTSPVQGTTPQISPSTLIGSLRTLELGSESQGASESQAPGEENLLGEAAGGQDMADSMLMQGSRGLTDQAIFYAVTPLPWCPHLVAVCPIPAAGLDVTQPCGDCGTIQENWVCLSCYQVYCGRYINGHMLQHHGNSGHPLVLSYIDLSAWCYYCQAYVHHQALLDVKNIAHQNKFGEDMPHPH
Chain of HDAC3 (O15379 whole entry): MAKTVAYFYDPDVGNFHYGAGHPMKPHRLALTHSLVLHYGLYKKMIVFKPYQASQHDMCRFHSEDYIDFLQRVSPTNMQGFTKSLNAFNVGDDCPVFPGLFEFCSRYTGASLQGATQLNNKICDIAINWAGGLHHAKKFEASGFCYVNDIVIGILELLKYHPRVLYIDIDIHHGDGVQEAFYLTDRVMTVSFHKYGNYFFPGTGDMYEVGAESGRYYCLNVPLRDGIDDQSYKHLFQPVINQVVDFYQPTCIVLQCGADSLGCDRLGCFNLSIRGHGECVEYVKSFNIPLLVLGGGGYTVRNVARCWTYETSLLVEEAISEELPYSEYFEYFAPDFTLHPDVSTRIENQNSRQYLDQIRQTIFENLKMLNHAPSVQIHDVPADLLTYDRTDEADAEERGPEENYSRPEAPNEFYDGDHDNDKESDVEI
Chain of HDAC3 (Q9Y618 395-489 partner): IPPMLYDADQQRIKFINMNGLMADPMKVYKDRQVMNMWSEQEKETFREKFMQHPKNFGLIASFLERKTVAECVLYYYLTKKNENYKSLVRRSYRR
Chain of HDAC2 (Q92769 whole entry): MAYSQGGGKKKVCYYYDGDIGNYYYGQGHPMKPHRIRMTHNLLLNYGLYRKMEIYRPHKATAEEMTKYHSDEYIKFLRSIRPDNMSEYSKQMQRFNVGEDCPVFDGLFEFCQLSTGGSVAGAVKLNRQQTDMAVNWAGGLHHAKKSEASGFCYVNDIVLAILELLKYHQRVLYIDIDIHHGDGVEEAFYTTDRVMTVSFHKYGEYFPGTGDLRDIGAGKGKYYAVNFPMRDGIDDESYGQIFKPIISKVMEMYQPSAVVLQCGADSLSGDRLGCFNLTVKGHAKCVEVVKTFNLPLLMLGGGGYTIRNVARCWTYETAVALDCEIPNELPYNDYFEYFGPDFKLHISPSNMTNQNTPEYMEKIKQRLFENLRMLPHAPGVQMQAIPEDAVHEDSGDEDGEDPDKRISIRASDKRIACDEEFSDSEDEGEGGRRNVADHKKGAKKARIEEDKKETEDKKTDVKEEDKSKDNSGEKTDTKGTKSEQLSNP

| Compound | HDAC2 fold over HDAC6 IC50 (selectivity for HDAC6) [1] | IC50 [2] [nM] | HDAC3 fold over HDAC6 IC50 (selectivity for HDAC6) [3] | HDAC1 fold over HDAC6 IC50 (selectivity for HDAC6) [4] | IC50 [3] [nM] | IC50 [4] [nM] | IC50 [1] [nM] |
| --- | --- | --- | --- | --- | --- | --- | --- |
| CN(c1ccc(Cl)c(Cl)c1)c1ncc(C(=O)NO)cn1 [Compound 8] |  | 38 |  |  | 219 |  |  |
| O=C(NO)c1cnc(Nc2ccc([N+](=O)[O-])c(C(F)(F)F)c2)nc1 [Compound 10] | (62.5x) | 10 | (42.6x) | (32.6x) | 430 | 329 | 631 |
| O=C(NO)c1cnc(Nc2cc(C(F)(F)F)cc(C(F)(F)F)c2)nc1 [Compound 15] | (100.8x) | 14 | (134.3x) | (102.2x) | 1850 | 1410 | 1390 |
| O=C(NO)c1cnc(Nc2c(F)c(F)cc(F)c2F)nc1 [Compound 16] | (18.1x) | 21 | (28.3x) | (15.7x) | 600 | 332 | 384 |
| O=C(NO)c1cnc(Nc2cc(F)cc(F)c2)nc1 [Compound 18] | 13.5x) | 13 | (14.1x) | (10.8x) | 177 | 136 | 170 |
| Cc1cc(C)cc(Nc2ncc(C(=O)NO)cn2)c1 [Compound 19] | (131.7x) | 4 | (88x) | (69.1x) | 319 | 251 | 478 |
| COc1cc(Nc2ncc(C(=O)NO)cn2)cc(C(F)(F)F)c1 [Compound 21] | (100.3x) | 5 | (92.2x) | (46x) | 484 | 241 | 526 |
| COc1cc(Nc2ncc(C(=O)NO)cn2)cc(OC)c1 [Compound 23] | (134x) | 3 | (100.2x) | (60.4x) | 257 | 155 | 343 |
| Cc1cc(F)cc(Nc2ncc(C(=O)NO)cn2)c1 [Compound 24] | (50.9x) | 5 | (37.6x) | (26x) | 193 | 133 | 261 |
| O=C(NO)c1cnc(Nc2cc(Cl)cc(C(F)(F)F)c2)nc1 [Compound 25] | (92.6x) | 10 | (81.9x) | (50.9x) | 830 | 516 | 938 |
| O=C(NO)c1cnc(NCCc2ccc(Cl)cc2)nc1 [Compound 44] |  | 11 |  |  | 307 | 173 |  |
| O=C(NO)c1cnc(NCc2ccc3c(c2)OCO3)nc1 [Compound 46] |  |  |  |  | 58 | 40 | 53 |
| COc1cc(F)ccc1CNc1ncc(C(=O)NO)cn1 [Compound 49] |  |  |  |  | 303 | 219 | 338 |
| O=C(NO)c1cnc(NC2(c3cccs3)CC2)nc1 [Compound 98] |  | 4 |  |  | 4250 | 147 |  |
| O=C(NO)c1cnc(NC2(c3cccc(C(F)(F)F)c3)CC2)nc1 [Compound 121] |  |  |  |  | 99 | 27 | 32 |
| O=C(NO)c1cnc(NC2(c3ccc(F)c(Cl)c3)CC2)nc1 [Compound 131] |  |  |  |  | 62 | 17 | 19 |
| O=C(NO)c1cnc(NC2(c3ccc(Cl)cc3)CC2)nc1 [Compound 136] |  |  |  |  | 107 | 45 | 40 |
| O=C(NO)c1cnc(NC2(c3ccc(Cl)c(Cl)c3)CC2)nc1 [Compound 141] |  |  |  |  | 54 | 13 | 17 |
| O=C(NO)c1cnc(NC2(c3cc(Cl)cc(Cl)c3)CC2)nc1 [Compound 146] |  |  |  |  | 57 | 16 | 22 |
| O=C(NO)c1cnc(NC2(c3cccc(Cl)c3)CCCC2)nc1 [Compound 153] |  |  |  |  | 1260 | 528 | 491 |

Further lines, results first:

| HDAC2 fold over HDAC6 IC50 (selectivity for HDAC6) [1] | IC50 [2] [nM] | HDAC3 fold over HDAC6 IC50 (selectivity for HDAC6) [3] | HDAC1 fold over HDAC6 IC50 (selectivity for HDAC6) [4] | IC50 [3] [nM] | IC50 [4] [nM] | IC50 [1] [nM] | Compound |
| --- | --- | --- | --- | --- | --- | --- | --- |
| 30x | 7 | 27x | 20x |  |  |  | O=C(NO)c1cnc(Nc2ccccc2)nc1 [Compound 1, N-hydroxy-2-(phenylamino)pyrimidine-5-carboxamide] |
|  | 5 |  |  | 299 | 264 |  | O=C(NO)c1cnc(Nc2ccc(Cl)c(Cl)c2)nc1 [Compound 2] |
| (44.1x) | 8 | (44.9x) | (26.7x) | 354 | 210 | 347 | O=C(NO)c1cnc(Nc2ccc(F)cc2)nc1 [Compound 3] |
| (32.8x) | 9 | (32.9x) | (22x) | 291 | 195 | 290 | Cc1ccc(Nc2ncc(C(=O)NO)cn2)cc1 [Compound 4] |
| (26x) | 15 | (27.8x) | (16.3x) | 421 | 247 | 395 | COc1ccc(Nc2ncc(C(=O)NO)cn2)cc1 [Compound 5] |
| (11.6x) | 20 | (13.3x) | (10.1x) | 266 | 202 | 231 | O=C(NO)c1cnc(Nc2ccc(Cl)cc2)nc1 [Compound 6] |
| (14.9x) | 42 | (14.4x) | (9.9x) | 606 | 415 | 629 | O=C(NO)c1cnc(Nc2ccccc2Cl)nc1 [Compound 7] |
| (30.2x) | 15 | (23.5x) | (14.1x) | 352 | 212 | 453 | O=C(NO)c1cnc(Nc2cc(Cl)ccc2Cl)nc1 [Compound 12] |
| (29.6x) | 5 | (36.5x) | (33.5x) | 198 | 182 | 161 | O=C(NO)c1cnc(Nc2cccc(Cl)c2)nc1 [Compound 17] |
| (20.1x) | 864 | (18.9x) | (12.3x | 16300 | 10600 | 17300 | O=C(NO)c1cnc(Nc2c(Cl)cccc2Cl)nc1 [Compound 20] |
| (166.7x) | 3 | (117x) | (83.1x) | 313 | 222 | 446 | O=C(NO)c1cnc(Nc2cccc(C(F)(F)F)c2)nc1 [Compound 22] |
|  | 2 |  |  |  |  |  | CC(Nc1ncc(C(=O)NO)cn1)c1ccccc1 (stereo not shown) [Compound 32] |
|  | 4 |  |  | 326 | 214 |  | O=C(NO)c1cnc(NCCc2ccccc2)nc1 [Compound 41] |
|  | 3 |  |  |  | 185 |  | Cc1cc(Cl)ccc1CNc1ncc(C(=O)NO)cn1 [Compound 52] |
|  | 37 |  |  |  |  |  | C[C@H](Nc1ncc(C(=O)NO)cn1)c1ccccc1 [Compound 61] |
|  | 2 |  |  |  |  |  | C[C@@H](Nc1ncc(C(=O)NO)cn1)c1ccccc1 [Compound 62] |
|  | 19 |  |  |  |  |  | C[C@H](Nc1ncc(C(=O)NO)cn1)c1ccccc1 [Compound 65] |
|  | 1 |  |  |  |  |  | C[C@@H](Nc1ncc(C(=O)NO)cn1)c1ccccc1 [Compound 66] |
|  | 2 |  |  |  |  |  | CC(Nc1ncc(C(=O)NO)cn1)c1ccccc1 (stereo not shown) [Compound 67] |
|  | 5 |  |  | 299 | 204 |  | O=C(NO)c1cnc(NCc2ccncc2)nc1 [Compound 69] |
|  |  |  |  | 1260 | 500 | 912 | CC(C)(Nc1ncc(C(=O)NO)cn1)c1ccccc1F [Compound 71] |
|  |  |  |  | 22 | 16 | 18 | O=C(NO)c1cnc(NC2(c3ccccc3F)CC2)nc1 [Compound 82] |
|  |  |  |  | 233 | 85 | 116 | O=C(NO)c1cnc(NC2(c3cccc(F)c3)CC2)nc1 [Compound 87] |
|  |  |  |  | 50 | 22 |  | O=C(NO)c1cnc(NC2(c3cccc(Cl)c3)CC2)nc1 [Compound 94] |
|  |  |  |  | 128 | 38 | 53 | COc1cccc(C2(Nc3ncc(C(=O)NO)cn3)CC2)c1 [Compound 120] |
|  |  |  |  | 119 | 50 | 57 | Cc1ccccc1C1(Nc2ncc(C(=O)NO)cn2)CC1 [Compound 127] |
|  |  |  |  | 99 | 47 | 40 | Cc1cccc(C2(Nc3ncc(C(=O)NO)cn3)CC2)c1 [Compound 134] |
